# Data: paper PMC8994274, “A proteolysis-targeting chimera molecule selectively degrades ENL and inhibits malignant gene expression and tumor growth” (Journal of Hematology & Oncology, 2022)
# Key:
# [1] = system: Molm-13 cells; test: Annexin V apoptosis assay in Molm-13 cells; assay type: cell-based; settings: 7 days
# Description: Treatment of Molm-13 cells with compound 1 for 7 days at 1 and 3 µM caused significant apoptosis of 22.7% and 67.6%, respectively (Fig. 6c and Additional file 1: Fig. S6).
# For Annexin V apoptosis assay, 10^5 cells/mL were incubated with increasing concentrations of a compound for 7 days. Apoptosis was determined using the FITC Annexin V Apoptosis Detection Kit I (BD Bioscience) using the manufacturer’s protocol. For other FACS assays, cells were labeled with fluorochrome-conjugated monoclonal antibodies against human CD14 and CD11b (BD Biosciences) according to the manufacturer’s recommendation. Cells were analyzed using a FACS Calibur (BD Biosciences/Applied Biosystems), and data were processed using the program Flowjo (version7.6.5).
# [2] = system: MV4;11 cells; test: Antiproliferation assay (XTT), MV4;11; settings: Homo sapiens, MV4-11, 168 h, read-out: EC50 against proliferation of MV4;11 cells
# Description: (§1) Proliferation inhibition assays for suspension blood cancer cells were performed using an XTT assay kit (Biotium), following our previous methods [22]. EC50 values were determined using Prism 5 and from at least three independent experiments.
# [3] = system: Kasumi-1 cells; test: Antiproliferation assay (XTT), Kasumi-1; settings: Homo sapiens, Kasumi 1, 168 h, read-out: Antiproliferative activity, EC50, Kasumi-1
# Description: as §1
# [4] = molecular target: T1, ENL (Homo sapiens, UniProt Q03111); test: ENL degradation in MV4;11 cells (Western blot); assay type: cell-based; design: endogenous in cells; host or cells: MV4;11; settings: 24 h
# T1 sequence (Q03111 1-559): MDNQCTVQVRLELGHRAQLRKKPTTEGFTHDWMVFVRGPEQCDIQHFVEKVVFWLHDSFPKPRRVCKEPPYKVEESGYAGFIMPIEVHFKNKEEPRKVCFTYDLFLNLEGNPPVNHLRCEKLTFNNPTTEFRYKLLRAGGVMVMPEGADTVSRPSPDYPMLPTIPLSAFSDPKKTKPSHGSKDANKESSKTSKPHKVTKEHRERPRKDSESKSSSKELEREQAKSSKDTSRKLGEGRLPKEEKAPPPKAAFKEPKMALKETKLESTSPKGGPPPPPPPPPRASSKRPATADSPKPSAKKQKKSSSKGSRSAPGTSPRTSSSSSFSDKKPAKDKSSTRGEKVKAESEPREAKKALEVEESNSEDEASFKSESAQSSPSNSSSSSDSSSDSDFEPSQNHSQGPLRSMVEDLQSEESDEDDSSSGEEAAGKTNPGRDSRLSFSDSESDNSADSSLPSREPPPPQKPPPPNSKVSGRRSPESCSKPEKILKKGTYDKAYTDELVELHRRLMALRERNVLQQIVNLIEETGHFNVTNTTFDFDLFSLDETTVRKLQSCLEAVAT
# Description: We next tested whether these compounds degrade ENL and AF9 in MV4;11 leukemia cells with the MLL1-AF4 oncogene. Upon compound treatment for 24 h, the cells were washed, lysed, and the lysates subjected to SDS-PAGE (sodium dodecyl sulfate–polyacrylamide gel electrophoresis) followed by detection with Western blot.
# 3 × 10^6 cells/well were treated with increasing concentrations of a compound for 1 day, and whole proteins were extracted. Equal amounts of proteins were separated on SDS-PAGE and transferred to PVDF membranes. The blots were probed with primary antibodies, followed by anti-rabbit IgG (Thermo Scientific) secondary antibodies. The primary antibodies against ENL (Cell signaling #14893), AF9 (Novusbio #NB100-1565), DOT1L (Cell signaling #77087), AFF4 (Abcam #ab103586), Cyclin T1 (Cell signaling #81464), H3K79me2 (Cell signaling #5427), H3K79me1 (Cell signaling #9398), Histone H3 (Cell signaling #4499), FLAG (Sigma-Aldrich #F1804), β-Actin (Cell signaling #4970) were used in this study.
# [5] = molecular target: T1, ENL; test: ChIP-qPCR, ENL at gene promoters of Myc and HoxA9; assay type: cell-based; design: endogenous in cells; host or cells: MV4;11; settings: MV4;11 cells, 500 nM, 4 days
# Description: Chromatin immunoprecipitation (ChIP) followed by qPCR was used to further probe the activity of compound 1 in the gene promoters of Myc and HoxA9, two characteristic MLL1 target genes.
# Upon treatment with a compound for 4 days, 10^7 MV4;11 cells were cross-linked with 1% formaldehyde at room temperature for 10 min, followed by the addition of 125 mM glycine. Cells were lysed with nuclear lysis buffer and sonicated to ~ 100–1000 bp fragments, which was incubated at 4 °C overnight with an antibody and IgG (C15410206, Diagenode). Protein A/G Magnetic Beads (10 µL, Novus Biologicals) were added and incubated for 2 h. The beads were washed 3 × with RIPA buffer and 2 × with TE buffer. DNA on the beads was eluted for 2 h at 68 °C in 100 μL of an elution buffer (20 mM Tris pH 7.5, 5 mM EDTA, 50 mM NaCl, 1% SDS, 50 μg/mL proteinase K) (2 ×), and purified using a ChIP DNA Clean & Concentrator kit (Novus Biologicals). qPCR was done using the method described above.
# [6] = molecular target: T2, ENL YEATS (Homo sapiens, UniProt Q03111)
# T2 sequence (Q03111 1-138): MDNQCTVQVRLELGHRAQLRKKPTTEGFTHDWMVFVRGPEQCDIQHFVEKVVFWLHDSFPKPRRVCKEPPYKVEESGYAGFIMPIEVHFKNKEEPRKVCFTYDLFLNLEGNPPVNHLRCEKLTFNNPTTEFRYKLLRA
# Description: cDNA for human ENL YEATS domain (1–138) was synthesized (by Genscript) and cloned into pET-28a vector.
# (§2) AlphaScreen binding assay was developed using Perkin-Elmer AlphaScreen Histidine (Nickel Chelate) Detection Kit, following a reported protocol [39]. Data were imported into Prism (version 5.0), and IC50 values from 3 independent experiments with standard deviation were obtained by using a standard dose–response curve fitting.
# [7] = molecular target: T3, AF9 YEATS (Homo sapiens, UniProt P42568); test: ALPHA assay, inhibition of the AF9 YEATS-H3K27ac interaction
# T3 sequence (P42568 1-138 limits assumed): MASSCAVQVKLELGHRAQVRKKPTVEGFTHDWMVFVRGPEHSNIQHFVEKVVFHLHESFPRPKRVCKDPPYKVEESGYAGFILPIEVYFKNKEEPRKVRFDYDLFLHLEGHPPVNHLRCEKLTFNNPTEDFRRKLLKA
# Description: as §2
smiles,measurement,setting,value
C[C@H]1CCCN1Cc1nc2cc(NC(=O)c3ccc4c(cnn4CCCCCCCCNc4cccc5c4C(=O)N(C4CCC(=O)NC4=O)C5=O)c3)ccc2[nH]1 (some centres unmarked) [Compound 1],Apoptosis,[1]; 0.5 μM,≤ 5%
same,Apoptosis,[1]; 1 µM,22.7%
same,Apoptosis,[1]; 3 µM,67.6%
same,EC50,[2],570 nM
same,EC50,[3],1100 ± 30 nM
same,Dmax,"[4]; MV4-11, MV4;11 cells, read-out: Dmax (maximal degradation) of ENL",~95%
same,Concentration of maximal ENL-degrading activity (hook effect above),[4]; MV4;11 cells,~ 500 nM
same,DC50,"[4]; MV4;11 cells, read-out: DC50 (concentration at which a protein is reduced by 50%) of ENL",37 nM
same,ENL levels at gene promoters of Myc and HoxA9,[5],significantly reduced
same,IC50,[6],170 nM
same,IC50,[7],750 ± 15 nM
